The source of these data is patent US20220211860A1, “PEPTIDE DERIVATIVES AND CONJUGATES THEREOF FOR TREATING CANCER” (priority 2019, published 2022).

Read-outs that look alike come from different tables or passages of the source. Non-standard residues stand in square brackets, D forms with d. Residues, ends and D or L forms follow the SMILES beside them. *: point of attachment. Dolaproine = CO[C@@H]([C@@H]1CCCN1)[C@@H](C)C(=O)O; Dil = CC[C@H](C)[C@H](NC)[C@@H](CC(=O)O)OC; X1 = C[C@@H](N*)[C@@H](O)c1ccccc1; NMeV = CN[C@H](C(=O)O)C(C)C

Data set [1] concerns SKOV-3. The settings on record: read-out: IC50 inhibition of cell growth.
Procedure: (§2) The IC50 values (μM) were estimated from concentration-response curves using non-linear regression for inhibition of cell growth. Data are expressed as mean±SD from at least three independent experiments, each in triplicate. Statistical analysis was performed using a two-way ANOVA (* p<0.05, the IC50 for each compared with that of their corresponding parent peptide for the same cell line).
The test system of another data set is MDA-MB-231. The settings on record: read-out: IC50 inhibition of cell growth.
A further data set deals with SK-BR-3. The settings on record: read-out: IC50 inhibition of cell growth.
A short description of a further data set: in vitro. The settings on record: human, plasma, half-life (T1/2).
The subject of another data set is MCF-7. The settings on record: read-out: IC50 inhibition of cell growth.
The next data set has as its system MCF-10A. In words: MTT cytotoxicity assay, MCF-10A normal breast cells. The class given is cell-based. The settings on record: 72 h. The procedure: (§1) FIG. 4A to 4E: The cytotoxic activity of the peptide conjugate LD5-mc-vc-PABC-MMAE (LM) in comparison to MMAE was assessed in MDA-MB-231 (TNBC cell model) versus HMEC and MCF-10A (normal breast cells) and SKOV-3 (low LHRH-R expressing cell model), by MTT assay after incubating cells with compounds in serial dilution for 72 h. (A) The relative cellular viability was assessed in comparison to PBS-treated negative control group and IC50 value (nM) was calculated by non-linear regression (curve fit) for HMEC and MCF-10A (normal breast cells) and MDA-MB-231 (LHRH-R positive, TNBC cell model) and SKOV-3 (LHRH-R low expressing cells). (B) The cell viability in LD5-me-vc-PABC-MMAE (LM) was assessed in HMEC as normal breast cell line in comparison to MMAE by two-way ANOVA followed by Sidak's multiple comparisons test (****p<0.0001). (C) The cell viability in LD5-mc-vc-PABC-MMAE (LM) was assessed in MCF-10A as normal breast cell line in comparison to MMAE by two-way ANOVA followed by Sidak's multiple comparisons test (***p<0.001, **p<0.01, *p<0.05). (D) The cell viability in LD5-me-vc-PABC-MMAE (LM) was assessed in MDA-MB-231 (TNBC cell model) in comparison to MMAE by two-way ANOVA followed by Sidak's multiple comparisons test (****p<0.0001). […]

For data set [2], the system named is SKOV-3. The experiment in a line: MTT cytotoxicity assay, SKOV-3 (low LHRH-R expressing). The class given is cell-based. The settings on record: SKOV-3, 72 h. As to the method:
as §1

The test system of a further data set is HMEC. The experiment in a line: MTT cytotoxicity assay, HMEC normal breast cells. The class given is cell-based. The settings on record: 72 h. The procedure:
as §1

The subject of another data set is α-tubulin polymerisation. In words: α-tubulin immunostaining in TNBC and normal breast cells. The class given is cell-based. The settings on record: TNBC cells and normal breast cells, 1 µM, 18 h. The procedure: FIGS. 8A and 8B: The effect of MMAE and LD5-me-vc-PABC-MMAE (LM) on α-tubulin polymerization. (A) MDA-MB-231 (TNBC cell model) and normal breast cells (HMEC and MCF-10A) were treated with free MMAE and LM at 1 μM and PBS (control) followed by immunostaining of α-tubulin with primary and secondary antibodies. The α-tubulin signals were detected by LEICA SPE2 confocal LSM. (B) The α-tubulin signal intensity was measured by Fiji J software in normal breast cells (HMEC and MCF-10A) and MDA-MB-231. ****p<0.0001 is the significance in the signal intensity in each cell line treated with PBS and LM in comparison to MMAE-treated cells. ####p<0.0001 is the significance of the α-tubulin signal intensity in MDA-MB-231 cells treated with LM in comparison to MCF-10A and HMEC cells. […] Statistical analysis was made in Prism by two-way ANOVA followed by Tukey's multiple comparisons test. Error bars are standard deviations (STDV), n=8 (3 independent repeats).
The intracellular effects of MMAE on α-tubulin polymerisation were examined using α-tubulin immunostaining in TNBC cells (MDA-MB-231) and normal breast cells (MCF-10A and HMEC) treated with MMAE and MMAE conjugated with LD5 (LD5-mc-vc-PABC-MMAE). TNBC cells and normal breast cells were fixed after incubating with […] of MMAE and LD5-mc-vc-PABC-MMAE for 18 h along with PBS as a control. […]

The subject of data set [3] is mice. The settings on record: cited from earlier work.
Data set [4] relates to mice. In words: MTD of brentuximab vedotin in mice (comparison). Type of data set: in vivo. From the text:
Therefore, the MTD was not reached at this dose. With the corresponding ADCs bearing MMAE the MTD has been considerably lower.

Procedure for MCF-7: as §2
Procedure for MDA-MB-231: as §2
Procedure for SK-BR-3: as §2
Procedure for in vitro: As described herein in vitro metabolic stability in plasma is defined as the susceptibility of a chemical compound to biotransformation in plasma, and is expressed as in vitro half-life (T1/2).
(B) The metabolic stability of LHRH peptide derivatives examined in human plasma and quantified by Liquid Chromatography-Mass-Spectrometry (LC-MS) in a time dependent manner. […] Statistical analysis was performed using a one-way ANOVA followed by Dunnett's post-hoc test. Error bars are standard deviations (STDV), p<0.05, n=9 (3 independent experiments each performed in triplicate).

In the case of `CCNC(=O)[C@@H]1CCCN1C(=O)[C@H](CCCNC(=N)N)NC(=O)[C@H](CC(C)C)NC(=O)[C@@H](CCCCN)NC(=O)[C@H](Cc1ccc(O)cc1)NC(=O)[C@H](CO)NC(=O)[C@H](Cc1c[nH]c2ccccc12)NC(=O)[C@H](Cc1c[nH]cn1)NC(=O)[C@@H](N)CCC(N)=O` [LD4, Gln-His-Trp-Ser-Tyr-D-Lys-Leu-Arg-Pro-NHCH2CH3] (H-QHWSY[dK]LRP-NHEt), the IC50 with SKOV-3 [1] is greater than 100 µM; in the data set with MDA-MB-231, 36.2 ± 0.8 µM; in the data set with SK-BR-3, 31.2 ± 4.8 µM; in the data set with MCF-7, 51.3 ± 3.1 µM. Further, the half-life in the data set “in vitro” is roughly 257 min.

Take `CCNC(=O)[C@@H]1CCCN1C(=O)[C@H](CCCNC(=N)N)NC(=O)[C@H](CC(C)C)NC(=O)[C@@H](CCCCN)NC(=O)[C@H](Cc1ccc(O)cc1)NC(=O)[C@H](CO)NC(=O)[C@H](Cc1c[nH]c2ccccc12)NC(=O)[C@H](Cc1c[nH]cn1)NC(=O)[C@@H]1CCC(=O)N1` [LD5, pGlu-His-Trp-Ser-Tyr-D-Lys-Leu-Arg-Pro-NHCH2CH3]: the IC50 in the data set on SKOV-3 [1] is greater than 100 µM; with MDA-MB-231 it was 38.1 ± 1.4 µM; in the data set with SK-BR-3, 33.5 ± 2.5 µM; in the data set with MCF-7, 47.6 ± 5.4 µM. The half-life in “in vitro” was roughly 365 min.

For the compound `CCNC(=O)[C@@H]1CCCN1C(=O)[C@H](CCCNC(=N)N)NC(=O)[C@H](CC(C)C)NC(=O)[C@@H](CCCCNC(=O)CCCCCN)NC(=O)[C@H](Cc1ccc(O)cc1)NC(=O)[C@H](CO)NC(=O)[C@H](Cc1c[nH]c2ccccc12)NC(=O)[C@H](Cc1c[nH]cn1)NC(=O)[C@@H]1CCC(=O)N1` [LD6, pGlu-His-Trp-Ser-Tyr-D-Lys(Ahx)-Leu-Arg-Pro-NHCH2CH3], the IC50 with SKOV-3 [1] is greater than 100 µM; in the data set with MDA-MB-231 it was 33.2 ± 2.5 µM; in the data set with SK-BR-3, 29.7 ± 1.1 µM; with MCF-7, 49.2 ± 2.1 µM. Besides, the half-life in “in vitro” was roughly 309 min.

`CC(C)C[C@H](NC(=O)CNC(=O)[C@H](Cc1ccc(O)cc1)NC(=O)[C@H](CO)NC(=O)[C@H](Cc1c[nH]c2ccccc12)NC(=O)[C@H](Cc1c[nH]cn1)NC(=O)[C@@H]1CCC(=O)N1)C(=O)N[C@@H](CCCNC(=N)N)C(=O)N1CCC[C@H]1C(=O)NCC(N)=O` [LHRH, pGlu-His-Trp-Ser-Tyr-Gly-Leu-Arg-Pro-Gly-NH2, reference compound]: the IC50 in the data set with SKOV-3 [1], in the data set on MDA-MB-231, in the data set with SK-BR-3 and in the data set on MCF-7 was greater than 100 µM throughout. Moreover, the half-life in the data set “in vitro” was roughly 10 min.

Consider `CC[C@H](C)[C@@H]([C@@H](CC(=O)N1CCC[C@H]1[C@H](OC)[C@@H](C)C(=O)N[C@H](C)[C@@H](O)c1ccccc1)OC)N(C)C(=O)[C@@H](NC(=O)[C@@H](NC)C(C)C)C(C)C` [MMAE, monomethyl auristatin E] (H-[NMeV]V[Dil][Dolaproine]-X1), for which the IC50 in the data set with MCF-10A was determined as 0.83 nM; with SKOV-3 [2], 0.03 nM; in the data set with HMEC it was 0.11 nM. Besides, the “α-tubulin formation compared to PBS control” value with α-tubulin polymerisation is reported as “dramatic decrease in α-tubulin formation”.

The compound `CC(C)C[C@H](NC(=O)[C@@H](CCCCN)NC(=O)[C@H](Cc1ccc(O)cc1)NC(=O)[C@H](CO)NC(=O)[C@H](Cc1c[nH]c2ccccc12)NC(=O)[C@H](Cc1cnc[nH]1)NC(=O)[C@@H]1CCC(=O)N1)C(=O)N[C@@H](CCCNC(=N)N)C(=O)N1CCC[C@H]1C(=O)NCC(N)=O` [[k^6] LHRH, reference compound] returned a half-life in “in vitro” of roughly 39 min.

On to `CC(C)C[C@H](NC(=O)[C@@H](Cc1c[nH]c2ccccc12)NC(=O)[C@H](Cc1ccc(O)cc1)NC(=O)[C@H](CO)NC(=O)[C@H](Cc1c[nH]c2ccccc12)NC(=O)[C@H](Cc1c[nH]cn1)NC(=O)[C@@H]1CCC(=O)N1)C(=O)N[C@@H](CCCNC(=N)N)C(=O)N1CCC[C@H]1C(=O)NCC(N)=O` [triptorelin, reference compound], for which the half-inhibitory concentration (IC50) with SKOV-3 [1] was greater than 100 µM; in the data set with MDA-MB-231 it was 68.1 ± 8.1 µM; in the data set on SK-BR-3, 81.2 ± 7.2 µM; in the data set on MCF-7, 79.4 ± 5.3 µM. In the data set “in vitro”, this compound showed a half-life of roughly 19 min.

In the case of “brentuximab vedotin: ADC in the clinic containing MMAE”, the MTD in the data set with mice [3] was 30 to 40 mg/kg. Moreover, the “MTD expressed as equivalent of LHRHD-(mc-vc-PABC)-MMAE” value in the data set on mice [4] is recorded as “approximately 70 mg/kg”.
